# Patent EP0137689B1, “GRF analogs” (THE SALK INSTITUTE FOR BIOLOGICAL STUDIES, priority 1983, dated 1986)
# Tested on: cells of rat pituitary glands
# Assay: in vitro growth hormone release assay in rat pituitary cell cultures (ir GH measured by radioimmunoassay)
# Format: cell-based
# Settings: for intrinsic biological activity / potency: in equimolar ratios, side-by-side comparison with synthetic hGRF(1-44)-NH2, incubation 3 to 4 hours, GH release; for intrinsic activity / specific activity: multiple doses factorial design experiments; for intrinsic activity: compared with hGRF(1-44)-NH2; for specific activity: relative to hGRF(1-44)-NH2
# Description: To determine the effectiveness of the peptide to promote the release of growth hormone, in vitro assays are carried out using synthetic hGRF(1-44)-NH2 in side-by-side comparison with pGRF(1-44)-NH2 and of a GRF Reference Standard having a known effectiveness to promote the release of growth hormone from pituitary cells. The GRF Reference standard is described and defined in Brazeau, et al., Endocrinology, Vol. 110 A538 (1982) and is an amount of a preparation of rat hypothalamic origin that produces a half- maximal response in terms of GH release in a pituitary cell monolayer bioassay. Cultures are used which include cells of rat pituitary glands removed some four to five days previously. Both cultures of a defined standard medium and cultures which are considered optimal for the secretion of growth hormone are used for the comparative testing, in the general manner described in Brazeau, et al. Regulatory Peptides, 1, 255, 1981. Incubation with the substance to be tested is carried out for 3 to 4 hours, and aliquots of the culture medium are removed and processed to measure their contents in inmunoreactive GH(ir GH) by a well- characterized radioimmunoassay.
# To determine the effectiveness of the peptide to promote the release of growth hormone, in vito assays are carried out using synthetic hGRF(1―44)-NH2 in side-by-side comparison with equimolar concentrations of bGRF(1―44)-NH2, as set forth hereinbefore in Example II.
# To determine the effectiveness of the peptide to promote the release of growth hormone, in vitro assays are carried out using synthetic hGRF(1―44)-NH2 in side-by-side comparison with equimolar concentrations of the synthetic oGRF(1-44)-NH2 of Example V as set forth hereinbefore in Example II.
SMILES,intrinsic biological activity,potency,intrinsic activity,specific activity
CC[C@H](C)[C@H](NC(=O)[C@H](C)NC(=O)[C@H](CC(=O)O)NC(=O)[C@H](C)NC(=O)[C@@H](N)Cc1ccc(O)cc1)C(=O)N[C@@H](Cc1ccccc1)C(=O)N[C@H](C(=O)N[C@@H](CC(N)=O)C(=O)N[C@@H](CO)C(=O)N[C@@H](Cc1ccc(O)cc1)C(=O)N[C@@H](CCCNC(=N)N)C(=O)N[C@@H](CCCCN)C(=O)N[C@H](C(=O)N[C@@H](CC(C)C)C(=O)NCC(=O)N[C@@H](CCC(N)=O)C(=O)N[C@@H](CC(C)C)C(=O)N[C@@H](CO)C(=O)N[C@@H](C)C(=O)N[C@@H](CCCNC(=N)N)C(=O)N[C@@H](CCCCN)C(=O)N[C@@H](CC(C)C)C(=O)N[C@@H](CC(C)C)C(=O)N[C@@H](CCC(N)=O)C(=O)N[C@@H](CC(=O)O)C(=O)N[C@H](C(=O)N[C@@H](CCSC)C(=O)N[C@@H](CC(N)=O)C(=O)N[C@@H](CCCNC(=N)N)C(=O)N[C@@H](CCC(N)=O)C(=O)N[C@@H](CCC(N)=O)C(=O)NCC(=O)N[C@@H](CCC(=O)O)C(=O)N[C@@H](CCCNC(=N)N)C(=O)N[C@@H](CC(N)=O)C(=O)N[C@@H](CCC(N)=O)C(=O)N[C@@H](CCC(=O)O)C(=O)N[C@@H](CCC(N)=O)C(=O)NCC(=O)N[C@@H](C)C(=O)N[C@@H](CCCCN)C(=O)N[C@H](C(=O)N[C@@H](CCCNC(=N)N)C(=O)N[C@@H](CC(C)C)C(N)=O)C(C)C)[C@@H](C)CC)C(C)C)[C@@H](C)O [bGRF(1-44)-NH2],full intrinsic biological activity,close to the same potency,same intrinsic activity,about 70 % of hGRF(1-44)-NH2
"CC[C@H](C)[C@H](NC(=O)[C@H](C)NC(=O)[C@H](CC(=O)O)NC(=O)[C@H](C)NC(=O)[C@@H](N)Cc1ccc(O)cc1)C(=O)N[C@@H](Cc1ccccc1)C(=O)N[C@H](C(=O)N[C@@H](CC(N)=O)C(=O)N[C@@H](CO)C(=O)N[C@@H](Cc1ccc(O)cc1)C(=O)N[C@@H](CCCNC(=N)N)C(=O)N[C@@H](CCCCN)C(=O)N[C@H](C(=O)N[C@@H](CC(C)C)C(=O)NCC(=O)N[C@@H](CCC(N)=O)C(=O)N[C@@H](CC(C)C)C(=O)N[C@@H](CO)C(=O)N[C@@H](C)C(=O)N[C@@H](CCCNC(=N)N)C(=O)N[C@@H](CCCCN)C(=O)N[C@@H](CC(C)C)C(=O)N[C@@H](CC(C)C)C(=O)N[C@@H](CCC(N)=O)C(=O)N[C@@H](CC(=O)O)C(=O)N[C@H](C(=O)N[C@@H](CCSC)C(=O)N[C@@H](CC(N)=O)C(=O)N[C@@H](CCCNC(=N)N)C(=O)N[C@@H](CCC(N)=O)C(=O)N[C@@H](CCC(N)=O)C(=O)NCC(=O)N[C@@H](CCC(=O)O)C(=O)N[C@@H](CCCNC(=N)N)C(=O)N[C@@H](CC(N)=O)C(=O)N[C@@H](CCC(N)=O)C(=O)N[C@@H](CCC(=O)O)C(=O)N[C@@H](CCC(N)=O)C(=O)NCC(=O)N[C@@H](C)C(=O)N[C@@H](CCCCN)C(=O)N[C@H](C(=O)N[C@@H](CCCNC(=N)N)C(=O)N[C@@H](CC(C)C)C(N)=O)C(C)C)[C@@H](C)CC)[C@@H](C)CC)[C@@H](C)O [oGRF(1-44), H-Tyr-Ala-Asp-Ala-lle-Phe-Thr-Asn-Ser-Tyr-Arg-Lys-lle-Leu-Gly-Gln-Leu-Ser-Ala-Arg-Lys-Leu-Leu-Gln-Asp- lle-Met-Asn-Arg-Gln-Gln-Gly-Glu-Arg-Asn-Gln-Glu-Gln-Gly-Ala-Lys-Val-Arg-Leu-NH2]",full intrinsic biological activity,close to the same potency,about the same intrinsic activity,about 70 % of hGRF(1-44)-NH2
CC[C@H](C)[C@H](NC(=O)[C@H](C)NC(=O)[C@H](CC(=O)O)NC(=O)[C@H](C)NC(=O)[C@@H](N)Cc1ccc(O)cc1)C(=O)N[C@@H](Cc1ccccc1)C(=O)N[C@H](C(=O)N[C@@H](CC(N)=O)C(=O)N[C@@H](CO)C(=O)N[C@@H](Cc1ccc(O)cc1)C(=O)N[C@@H](CCCNC(=N)N)C(=O)N[C@@H](CCCCN)C(=O)N[C@H](C(=O)N[C@@H](CC(C)C)C(=O)NCC(=O)N[C@@H](CCC(N)=O)C(=O)N[C@@H](CC(C)C)C(=O)N[C@@H](CO)C(=O)N[C@@H](C)C(=O)N[C@@H](CCCNC(=N)N)C(=O)N[C@@H](CCCCN)C(=O)N[C@@H](CC(C)C)C(=O)N[C@@H](CC(C)C)C(=O)N[C@@H](CCC(N)=O)C(=O)N[C@@H](CC(=O)O)C(=O)N[C@H](C(=O)N[C@@H](CCSC)C(=O)N[C@@H](CO)C(=O)N[C@@H](CCCNC(=N)N)C(=O)N[C@@H](CCC(N)=O)C(=O)N[C@@H](CCC(N)=O)C(=O)NCC(=O)N[C@@H](CCC(=O)O)C(=O)N[C@@H](CCCNC(=N)N)C(=O)N[C@@H](CC(N)=O)C(=O)N[C@@H](CCC(N)=O)C(=O)N[C@@H](CCC(=O)O)C(=O)N[C@@H](CCC(N)=O)C(=O)NCC(=O)N[C@@H](C)C(=O)N[C@@H](CCCNC(=N)N)C(=O)N[C@H](C(=O)N[C@@H](CCCNC(=N)N)C(=O)N[C@@H](CC(C)C)C(N)=O)C(C)C)[C@@H](C)CC)C(C)C)[C@@H](C)O [pGRF(1-44)-NH2],full intrinsic biological activity,close to the same potency,,
